# Assay results taken from ChEMBL document CHEMBL1137901, “Biaryl guanidine inhibitors of in vitro HCV-IRES activity” (Bioorg Med Chem Lett, 2004).
# Key:
# Hepatitis C virus [1] = test: In vitro inhibitory concentration against hepatitis C virus internal ribosome entry site (HCV-IRES) translation; assay type: functional, Hepacivirus hominis
# Hepatitis C virus [2] = test: Selectivity was determined as the ratio of IC50 of non-IRES to that of IC50 of HCV-IRES; assay type: functional, Hepacivirus hominis
# [3] = In vitro inhibitory concentration against non internal ribosome entry site translation; assay type: functional
IC50 (Hepatitis C virus [1]),IC50 [3],Structure (SMILES),Selectivity (Hepatitis C virus [2])
75 µM,–,Cc1cc(C)nc(/N=C(\N)NC[C@H](O)c2ccccc2)n1,>2.7
82 µM,–,Cc1cc(C)nc(/N=C(\N)NCCc2ccc(C(F)(F)F)cc2)n1,2.2
> 200 µM,> 200 µM,Cc1cc(C)nc(NC(=N)NCCc2ccccc2)c1,–
68 µM,–,COc1ccc(CC/N=C(\N)Nc2nc(C)cc(C)n2)c(OC)c1,2.6
23 µM,–,Cc1ccc(CC/N=C(\N)Nc2nc(C)cc(C)n2)c(C)c1,3.3
23 µM,–,Cc1cc(C)nc(/N=C(\N)NCCc2ccc3ccccc3n2)n1,3.7
150 µM,–,Cc1cc(C)nc(/N=C(\N)NCCCc2ccccc2)n1,1.3
50 µM,–,Cc1cc(C)nc(/N=C(\N)NCCc2ccc(Br)cc2)n1,2.5
21 µM,–,Cc1cc(C)nc(N/C(N)=N/C[C@@H](C)c2ccccc2)n1,1.9
19 µM,–,Cc1nc(/N=C(\N)NCCc2ccccc2)nc(C)c1O,3.6
25 µM,–,COc1ccc(CCNC(=N)Nc2nc(C)cc(C)n2)cc1,4.1
39 µM,–,Cc1cc(C)nc(/N=C(\N)NCCc2ccccn2)n1,2.4
13 µM,–,CCc1cc(CC)nc(/N=C(\N)NCCc2ccccc2)n1,2.2
24 µM,–,Cc1cc(C)nc(/N=C(\N)NCCc2ccc(Cl)cc2)n1,2.3
> 200 µM,> 200 µM,Cc1cc(C)nc(/N=C(\N)NCCc2ccc(C(=O)O)cc2)n1,–
4.2 µM,–,Cc1nc(/N=C(\N)NCCc2ccccc2)nc(C)c1C,1.3
> 200 µM,> 200 µM,Cc1cc(C)nc(/N=C(\N)NCCc2ccc(C(C)(C)C)cc2)n1,–
> 200 µM,> 200 µM,Cc1cc(C)nc(/N=C(\S)NCCc2ccccc2)n1,–
80 µM,–,Cc1cc(C)nc(/N=C(\N)NCCc2ccc(-c3ccccc3)cc2)n1,>2.5

IC50 (Hepatitis C virus [1]),IC50 [3],Structure (SMILES),Selectivity (Hepatitis C virus [2])
7.6 µM,–,Cc1cc(C)nc(/N=C(\N)NCc2ccccc2)n1,2.6
12 µM,–,Cc1cc(C)nc(/N=C(\N)NCCc2cccc(Cl)c2)n1,1.8
55 µM,–,Cc1cc(C)nc(/N=C(\N)NCCc2ccncc2)n1,>3.6
9.7 µM,–,Cc1cc(C)nc(/N=C(\N)NC[C@@H](O)c2ccccc2)n1,>2.2
100 µM,–,COc1cc(OC)c(CC/N=C(\N)Nc2nc(C)cc(C)n2)c(OC)c1,>2
9.9 µM,–,COc1c(C)nc(/N=C(\N)NCCc2ccccc2)nc1C,3.4
23 µM,–,Cc1cccc(CC/N=C(\N)Nc2nc(C)cc(C)n2)c1,2.8
26 µM,–,COc1cc(CC/N=C(\N)Nc2nc(C)cc(C)n2)cc(OC)c1,>7.7
23 µM,–,Cc1cc(C)nc(/N=C(\N)NCc2nc3ccccc3[nH]2)n1,1.7
97 µM,–,Cc1cc(C)nc(/N=C(\N)NCc2ccco2)n1,>2
> 200 µM,> 200 µM,Cc1cc(C)nc(N(C)C(=N)NCCc2ccccc2)n1,–
54 µM,–,Cc1cc(C)nc(/N=C(\N)NCCc2ccc([N+](=O)[O-])cc2)n1,1.5
> 200 µM,> 200 µM,Cc1cc(C)nc(NC(=O)NCCc2ccccc2)n1,–
94 µM,–,COc1ccc(OC)c(CC/N=C(\N)Nc2nc(C)cc(C)n2)c1,>2.1
38 µM,–,Cc1cc(C)nc(/N=C(\N)NCc2cccs2)n1,1.3
49 µM,–,Cc1cc(C)nc(/N=C(\N)NCCc2ccc(O)cc2)n1,3
34 µM,–,Cc1ccc(CC/N=C(\N)Nc2nc(C)cc(C)n2)cc1,3.8
35 µM,–,Cc1ccc(C)c(CC/N=C(\N)Nc2nc(C)cc(C)n2)c1,5.7
15 µM,–,Cc1cc(C)nc(/N=C(\N)NCCc2ccccc2C)n1,1.8

IC50 (Hepatitis C virus [1]),IC50 [3],Structure (SMILES),Selectivity (Hepatitis C virus [2])
29 µM,–,COC(=O)c1ccc(CC/N=C(\N)Nc2nc(C)cc(C)n2)cc1,3.4
13 µM,–,COc1ccccc1CC/N=C(\N)Nc1nc(C)cc(C)n1,1.8
16 µM,–,Cc1cc(C)nc(/N=C(\N)NCCc2ccccc2Cl)n1,1.8
> 200 µM,> 200 µM,Cc1cc(C)nc(NC(=N)N(C)CCc2ccccc2)n1,–
25 µM,–,Cc1cc(C)nc(/N=C(\N)NCc2cc3ccccc3o2)n1,2.8
32 µM,–,Cc1cc(C)nc(/N=C(\N)NCCc2cccnc2)n1,4
35 µM,–,COc1cc(OC)nc(/N=C(\N)NCCc2ccccc2)n1,5
> 200 µM,> 200 µM,Cc1cc(C)cc(NC(=N)NCCc2ccccc2)c1,–
46 µM,–,Cc1ccnc(/N=C(\N)NCCc2ccccc2)n1,3.5
2.1 µM,–,Cc1nc(/N=C(\N)NCCc2ccccc2)nc(C)c1OCCCN(C)C,2
61 µM,–,Cc1cc(C)nc(/N=C(\N)NCCc2ccc(N)cc2)n1,2.5
82 µM,–,CCOc1ccc(CC/N=C(\N)Nc2nc(C)cc(C)n2)cc1,>2.4
92 µM,–,Cc1cc(C)nc(/N=C(\N)NCCc2ccc(OC(F)(F)F)cc2)n1,>2.2
104 µM,–,Cc1cc(C)nc(N/C(N)=N/CCc2ccc(C(C)C)cc2)n1,>1.9
75 µM,–,Cc1cc(C)nc(/N=C(\N)NCC(c2ccccc2)c2ccccc2)n1,>2.7
23 µM,–,Cc1cc(C)nc(/N=C(\N)NCCc2ccc(F)cc2)n1,4.1
9.6 µM,–,Cc1cc(C)nc(/N=C(\N)NCCc2ccccc2)n1,2.4
35 µM,–,Cc1cc(C)nc(N/C(N)=N/C[C@H](C)c2ccccc2)n1,5.7
8.1 µM,–,Cc1nc(/N=C(\N)NCCc2ccccc2)nc(C)c1Br,2.2
